Assay results reported in patent publication US9301961B2, “Autoimmune and inflammatory disorder therapy” (Katholieke Universiteit Leuven, K.U. Leuven R&D, priority 2011, dated 2016).
Like-named read-outs stand apart in the source and are kept apart here.

What was measured:
ADCK3 = biological target: T1, ADCK3 (Homo sapiens, UniProt Q8NI60); test: Kinase-tagged phage competition binding assay (qPCR), 382-kinase library
T1 construct: made in house; host or cells: E. coli BL21-derived host (T7 phage) or HEK-293

[1] = test system: Peripheral blood mononuclear cells (PBMCs) mixed with mitomycin C treated RPMI1788 cells; test: Mixed lymphocyte reaction (MLR) assay, 3H-thymidine uptake
Source text: In the MLR assay PBMCs from two individuals are mixed together in tissue culture for several days. […] In the one-way MLR test, the mononuclear cells from one of the individuals are inactivated (usually by treatment with mitomycin C or irradiation), thereby allowing only the untreated remaining population of mononuclear cells, such as lymphocytes, to proliferate in response to foreign histocompatibility antigens.
The immunosuppressive effect of test compounds was also investigated using MLR assays. Peripheral blood mononuclear cells (PBMCs) were isolated from heparinized blood of healthy donors by density-gradient centrifugation over Lymphoprep. […] RPMI1788 cells were treated with 30 μg/mL mitomycin C for 20 min at 37° C., washed four times with medium, and finally suspended in complete RPMI medium to a density of 0.45×10^6 cells/mL. An amount of 100 μL of each cell suspension was mixed with 20 μL of diluted compound. The mixed cells were cultured at 37° C. for 6 days in 5% CO2. […] Thereafter, the cells were harvested on glass filter paper and the counts per minute (cpm) determined in a liquid scintillation counter.

[2] = biological target: T2, PI3KCB (PI3K p110β/p85α (h)) (Homo sapiens, UniProt P42338); test: Commercial kinase activity assay (Millipore, HTRF); format: biochemical; conditions: 10 μM test compound
T2 construct: purchased Millipore
Protocol: LOK (h) was incubated with 8 mM MOPS pH 7.0, 0.2 mM EDTA, 250 μM […], 10 mM MgAcetate and [γ-^33P-ATP] (specific activity approx. 500 cpm/pmol, concentration as required). The reaction was initiated by the addition of the MgATP mix. After incubation for 40 minutes at room temperature, the reaction was stopped by the addition of 3% phosphoric acid solution. 10 μL of the reaction was then spotted onto a P30 filtermat and washed three times for 5 minutes in 75 mM phosphoric acid and once in methanol prior to drying and scintillation counting. PI3K p110β/p85α (h) PI3K (p110β/p85α) (h) was incubated in assay buffer containing 10 μM phosphatidylinositol-4,5-bisphosphate and MgATP (concentration as required). The reaction was initiated by the addition of the MgATP mix. After incubation for 30 minutes at room temperature, the reaction was stopped by the addition of stop solution containing EDTA and biotinylated phosphatidylinositol-3,4,5-trisphosphate. Finally, detection buffer was added, which contains europium-labelled anti-GST monoclonal antibody, GST-tagged GRP1 PH domain and streptavidinallophycocyanin. The plate was then read in time-resolved fluorescence mode and the homogenous time-resolved fluorescence (HTRF®) signal determined according to the formula HTRF=10000×(Em665nm/Em620 nm). […]

[3] = test system: murine splenocytes stimulated with α-CD3 antibody; test: Cytokine secretion after α-CD3 stimulation; format: cell-based, Balb/C mice; conditions: Mus musculus, Splenocyte, 24 h
Protocol: The ability of test compounds to inhibit cytokine release by murine splenocytes after stimulation with α-CD3 antibody was also investigated.
2×10^6 splenocytes from Balb/C female mice, 8-10 weeks old in 220 μl of complete medium were stimulated with 0.1 μg of hamster anti mouse CD3ε antibody in presence of various concentrations of test compounds. After 24 h of incubation at 37° C., 5% CO2, supernatant were collected and cytokine titers were determined by flow cytometry according manufacturer protocols (MCB United States, Arlington, Mass., USA).
The results are shown in FIG. 1 compared to a DMSO negative control (▾). […].

LOK (h) = biological target: T3, LOK (h) (Homo sapiens, UniProt O94804); test: Commercial kinase activity assay (Millipore, 33P-ATP filter); format: biochemical; conditions: 10 μM test compound
T3 construct: purchased Millipore
Protocol: LOK (h) was incubated with 8 mM MOPS pH 7.0, 0.2 mM EDTA, 250 μM […], 10 mM MgAcetate and [γ-^33P-ATP] (specific activity approx. 500 cpm/pmol, concentration as required). The reaction was initiated by the addition of the MgATP mix. After incubation for 40 minutes at room temperature, the reaction was stopped by the addition of 3% phosphoric acid solution. 10 μL of the reaction was then spotted onto a P30 filtermat and washed three times for 5 minutes in 75 mM phosphoric acid and once in methanol prior to drying and scintillation counting. PI3K p110β/p85α (h) PI3K (p110β/p85α) (h) was incubated in assay buffer containing 10 μM phosphatidylinositol-4,5-bisphosphate and MgATP (concentration as required). The reaction was initiated by the addition of the MgATP mix. After incubation for 30 minutes at room temperature, the reaction was stopped by the addition of stop solution containing EDTA and biotinylated phosphatidylinositol-3,4,5-trisphosphate. Finally, detection buffer was added, which contains europium-labelled anti-GST monoclonal antibody, GST-tagged GRP1 PH domain and streptavidinallophycocyanin. The plate was then read in time-resolved fluorescence mode and the homogenous time-resolved fluorescence (HTRF®) signal determined according to the formula HTRF=10000×(Em665nm/Em620 nm). YSK4 (h) YSK4 (h) was incubated with 8 mM MOPS pH 7.0, 0.2 mM EDTA, 250 […], 10 mM MgAcetate and [γ-^33P-ATP] (specific activity approx. 500 cpm/pmol, concentration as required). The reaction was initiated by the addition of the MgATP mix. After incubation for 40 minutes at room temperature, the reaction was stopped by the addition of 3% phosphoric acid solution. 10 μL of the reaction was then spotted onto a P30 filtermat and washed three times for 5 minutes in 75 mM phosphoric acid and once in methanol prior to drying and scintillation counting. PI4KA (PI4K alpha) The 2× PI4KA (PI4K alpha)/PI Lipid Kinase Substrate mixture was prepared in 20 mM Tris, pH 7.5, 0.4% Triton X-100, 5 mM MgCl2, 0.5 mM EGTA. The final 10 μL Kinase Reaction consisted of 75-300 ng PI4KA (PI4K alpha) and 100 μM PI Lipid Kinase Substrate in 7.5 mM HEPES, 10 mM Tris, pH 7.5, 0.2% Triton X-100, 2.5 mM MgCl2, 0.25 mM EGTA. After the 1 hour Kinase Reaction incubation, 5 μL of Detection Mix consisting of a europium labeled anti-ADP antibody, an Alexa Fluor® 647 labeled ADP tracer, and EDTA (to stop the kinase reaction) was added to the assay well. ADP formed by the kinase reaction (in the absence of an inhibitor) displaced the Alexa Fluor® 647 labeled ADP tracer from the antibody, resulting in a decrease in the TR-FRET signal. […] PI4KB (PI4K beta) The 2× PI4KB (PI4K beta)/PI Lipid Kinase Substrate mixture was prepared in 50 mM HEPES pH 7.5, 0.1% CHAPS, 1 mM EGTA, 4 mM MgCl2. […]

PAK1 [4] = biological target: T4, PAK1 (Homo sapiens, UniProt Q13153); test: Kinase-tagged phage competition binding assay (qPCR), 382-kinase library
T4 construct: made in house; host or cells: E. coli BL21-derived host (T7 phage) or HEK-293

PAK1 [5] = biological target: T4, PAK1; test: Commercial kinase activity assay (Invitrogen, fluorescence); format: biochemical; conditions: 10 μM test compound
[6] = 10 μM compound, read-out: % Inhibition of substrate binding
[7] = stated for the 8 kinases of Table 1

T4 sequence (Q13153 whole entry): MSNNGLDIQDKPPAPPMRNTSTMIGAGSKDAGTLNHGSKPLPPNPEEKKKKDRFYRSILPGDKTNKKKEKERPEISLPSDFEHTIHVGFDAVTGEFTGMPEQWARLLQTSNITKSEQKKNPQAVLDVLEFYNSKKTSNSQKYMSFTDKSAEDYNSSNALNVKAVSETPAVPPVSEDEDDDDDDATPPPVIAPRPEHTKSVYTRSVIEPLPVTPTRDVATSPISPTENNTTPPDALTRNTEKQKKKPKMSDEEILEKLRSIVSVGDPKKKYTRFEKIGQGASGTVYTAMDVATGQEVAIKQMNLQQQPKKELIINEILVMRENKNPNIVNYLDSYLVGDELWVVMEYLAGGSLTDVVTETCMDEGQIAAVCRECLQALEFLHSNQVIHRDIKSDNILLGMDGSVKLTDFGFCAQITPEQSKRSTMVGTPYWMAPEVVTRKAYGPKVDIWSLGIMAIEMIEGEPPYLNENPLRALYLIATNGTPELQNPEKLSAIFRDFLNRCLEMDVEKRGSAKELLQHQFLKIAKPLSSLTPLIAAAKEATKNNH
T1 sequence (Q8NI60 163-647): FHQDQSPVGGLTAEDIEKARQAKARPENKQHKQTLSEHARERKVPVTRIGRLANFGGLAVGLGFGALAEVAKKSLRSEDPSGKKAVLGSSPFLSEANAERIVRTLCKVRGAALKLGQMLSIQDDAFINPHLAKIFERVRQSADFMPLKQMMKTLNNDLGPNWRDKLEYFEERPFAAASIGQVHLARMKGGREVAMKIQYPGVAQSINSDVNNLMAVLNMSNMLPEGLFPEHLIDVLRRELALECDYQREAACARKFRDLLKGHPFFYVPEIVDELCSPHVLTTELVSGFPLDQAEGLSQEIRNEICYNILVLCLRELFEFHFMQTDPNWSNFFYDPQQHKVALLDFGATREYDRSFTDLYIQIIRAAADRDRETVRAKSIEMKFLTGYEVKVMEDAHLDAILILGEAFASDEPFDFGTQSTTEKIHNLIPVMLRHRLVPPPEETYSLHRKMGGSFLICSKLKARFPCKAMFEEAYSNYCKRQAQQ
T3 sequence (O94804 whole entry): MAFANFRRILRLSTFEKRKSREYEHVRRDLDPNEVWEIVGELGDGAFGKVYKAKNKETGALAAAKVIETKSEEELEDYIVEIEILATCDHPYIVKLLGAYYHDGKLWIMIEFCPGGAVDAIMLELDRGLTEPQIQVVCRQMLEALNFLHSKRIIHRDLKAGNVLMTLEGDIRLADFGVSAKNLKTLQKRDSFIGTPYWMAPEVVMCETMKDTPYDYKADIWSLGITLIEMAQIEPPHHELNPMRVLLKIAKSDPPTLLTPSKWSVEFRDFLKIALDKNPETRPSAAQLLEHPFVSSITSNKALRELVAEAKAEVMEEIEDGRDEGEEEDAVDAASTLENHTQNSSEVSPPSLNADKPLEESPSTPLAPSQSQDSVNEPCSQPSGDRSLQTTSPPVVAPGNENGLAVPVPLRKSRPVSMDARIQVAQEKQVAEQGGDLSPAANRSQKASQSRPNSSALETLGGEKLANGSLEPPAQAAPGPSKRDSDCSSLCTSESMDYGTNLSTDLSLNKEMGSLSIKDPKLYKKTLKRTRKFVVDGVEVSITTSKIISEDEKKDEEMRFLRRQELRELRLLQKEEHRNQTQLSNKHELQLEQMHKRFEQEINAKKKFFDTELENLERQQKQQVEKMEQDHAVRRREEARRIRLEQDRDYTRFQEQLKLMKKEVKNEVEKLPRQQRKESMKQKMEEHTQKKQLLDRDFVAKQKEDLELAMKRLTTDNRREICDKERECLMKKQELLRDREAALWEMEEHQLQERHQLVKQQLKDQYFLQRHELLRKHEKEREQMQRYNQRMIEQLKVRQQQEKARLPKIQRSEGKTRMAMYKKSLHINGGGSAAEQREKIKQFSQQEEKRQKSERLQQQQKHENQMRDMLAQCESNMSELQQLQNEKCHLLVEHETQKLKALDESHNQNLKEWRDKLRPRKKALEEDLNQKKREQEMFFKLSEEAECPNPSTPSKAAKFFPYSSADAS
T2 sequence (P42338 whole entry): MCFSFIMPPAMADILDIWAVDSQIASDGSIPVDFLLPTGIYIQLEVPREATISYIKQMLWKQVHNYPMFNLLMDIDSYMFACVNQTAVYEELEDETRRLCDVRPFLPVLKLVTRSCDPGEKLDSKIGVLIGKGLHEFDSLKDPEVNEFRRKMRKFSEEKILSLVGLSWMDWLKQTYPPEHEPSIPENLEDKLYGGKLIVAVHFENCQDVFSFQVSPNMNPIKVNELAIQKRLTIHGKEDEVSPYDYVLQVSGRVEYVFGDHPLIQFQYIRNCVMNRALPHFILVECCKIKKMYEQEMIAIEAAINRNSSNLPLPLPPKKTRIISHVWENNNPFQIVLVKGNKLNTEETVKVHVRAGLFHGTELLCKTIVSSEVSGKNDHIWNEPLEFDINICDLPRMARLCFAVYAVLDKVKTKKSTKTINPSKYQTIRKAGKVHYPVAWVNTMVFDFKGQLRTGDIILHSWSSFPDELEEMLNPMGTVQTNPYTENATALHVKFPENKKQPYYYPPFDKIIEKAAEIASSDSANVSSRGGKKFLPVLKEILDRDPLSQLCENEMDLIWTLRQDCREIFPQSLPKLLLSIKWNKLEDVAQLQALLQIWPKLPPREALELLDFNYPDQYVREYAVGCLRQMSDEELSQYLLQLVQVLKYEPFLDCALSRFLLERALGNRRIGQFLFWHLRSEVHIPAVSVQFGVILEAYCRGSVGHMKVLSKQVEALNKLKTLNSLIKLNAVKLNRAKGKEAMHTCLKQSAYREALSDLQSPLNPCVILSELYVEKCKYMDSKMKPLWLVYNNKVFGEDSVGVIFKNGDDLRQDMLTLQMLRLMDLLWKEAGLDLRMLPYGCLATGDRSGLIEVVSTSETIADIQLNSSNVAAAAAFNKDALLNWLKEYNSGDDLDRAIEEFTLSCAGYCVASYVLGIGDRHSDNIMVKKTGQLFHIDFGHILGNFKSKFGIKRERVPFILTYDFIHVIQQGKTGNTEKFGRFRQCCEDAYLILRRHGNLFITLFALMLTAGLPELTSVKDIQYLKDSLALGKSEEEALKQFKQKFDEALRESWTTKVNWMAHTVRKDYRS
T2 sequence (P27986 whole entry partner): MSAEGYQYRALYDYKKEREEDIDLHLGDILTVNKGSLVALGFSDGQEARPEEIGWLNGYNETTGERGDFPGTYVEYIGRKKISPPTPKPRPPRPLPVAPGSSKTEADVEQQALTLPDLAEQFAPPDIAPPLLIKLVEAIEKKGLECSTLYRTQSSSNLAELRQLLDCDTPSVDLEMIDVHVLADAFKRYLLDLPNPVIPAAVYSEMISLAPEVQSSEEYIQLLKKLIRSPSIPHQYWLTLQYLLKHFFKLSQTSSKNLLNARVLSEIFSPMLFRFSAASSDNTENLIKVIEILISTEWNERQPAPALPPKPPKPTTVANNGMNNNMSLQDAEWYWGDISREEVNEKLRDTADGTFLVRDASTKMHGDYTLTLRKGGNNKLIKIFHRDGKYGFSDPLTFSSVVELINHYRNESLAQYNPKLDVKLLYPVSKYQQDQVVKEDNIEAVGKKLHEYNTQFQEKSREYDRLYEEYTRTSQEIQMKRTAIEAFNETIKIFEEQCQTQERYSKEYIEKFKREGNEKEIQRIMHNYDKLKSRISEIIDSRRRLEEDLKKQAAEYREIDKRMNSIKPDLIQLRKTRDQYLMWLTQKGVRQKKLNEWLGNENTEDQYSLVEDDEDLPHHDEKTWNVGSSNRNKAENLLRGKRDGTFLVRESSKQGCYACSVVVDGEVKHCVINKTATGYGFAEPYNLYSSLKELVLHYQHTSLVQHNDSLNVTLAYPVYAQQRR

**Q.** What does the source list for Nc1nc(N2CCN(C(=O)COc3ccc(Cl)cc3)CC2)c2nc(-c3cccnc3)sc2n1 [formula (1), 5-amino-7-[4-(4-chlorophenoxyacetyl)piperazin-1-yl]-2-(pyridin-3-yl)thiazolo[5,4-d]pyrimidine]?
**A.** inhibition at 10 µM (ADCK3; [6]): 68%; IC50 (ADCK3; [7]): < 10000 nM; IC50 ([1]; RPMI-1788, 144 h, read-out: IC50 MLR, 6 days culture): < 50 nM; IC50 ([1]; read-out: IC50 MLR, 6 days culture): 30 nM; Kinase activity [2]: 100 percentage of control; IC50 ([3]; read-out: IC50 for inhibition of IFNγ release): 204 nM; IC50 ([3]; read-out: IC50 for inhibition of IL2 release): 76 nM; Kinase activity (LOK (h)): 117 percentage of control; inhibition at 10 µM (PAK1 [4]; [6]): 54%; IC50 (PAK1 [4]; [7]): < 10000 nM; Kinase activity (PAK1 [5]): 115 percentage of control
